From patent US8722731B2, “Furanyl compounds and the use thereof” (NovoMedix, LLC, priority 2010, dated 2014)
Like-named read-outs stand apart in the source and are kept apart here.

Assays:
OVCAR-3 = assay: IC50 cell-based assay, adherent cells, OVCAR-3; settings: Homo sapiens, Ovarian, adenocarcinoma, 72 hours, read-out: IC50 of Compounds in Adherent Cell Types
Description: (§1) In one embodiment, the IC50s of the compounds provided herein were determined in cell-based assays using adherent cells. In one embodiment, the activity of the compounds provided herein were determined in a cell-based assay using the triple negative breast cancer cell line MDA-MB-468. In one embodiment, the adherent cells used in the cell-based assays may be a cell type selected from Table 1. In one embodiment, the cell-based assay may be carried out as provided herein. On day 0, cells were seeded at 20,000 cells per well in 100 µL of media into individual wells of a 96-well tissue culture plate. The next day, compounds were diluted to twice the desired final concentration and added in 100 µL of media for a final volume of 200 μL. Standard solutions for each compound were prepared at 1000× concentration in DMSO. The highest concentration was 30 mM. Serial 1:1 dilutions were made from there for a 6- or 9-point curve (e.g., 30 mM, 15 mM, 7.5 mM, etc). Compounds were then diluted 1:500 in media, and 100 µL of the resulting solution was added to each well for a final dilution of 1:1000. Each concentration of compound was tested in triplicate. Cells were incubated at 37° C. with 5% CO2. After 72 hours, 20 μL of CellTiter 96 Aqueous One Solution Cell Proliferation Assay (Promega) was added to each well. Cells were placed back in the incubator, and the absorbance at 490 nm was read after 2-3 hours. The concentration of compound that decreased the number of metabolically active cells by 50% was determined and reported as the IC50. “Percent Viability” was determined by subtracting the average background value (media only) and expressed as a ratio to the average value obtained from cells treated with only DMSO.

MDA-MB-231 = assay: IC50 cell-based assay, adherent cells, MDA-MB-231; settings: Homo sapiens, Breast, triple neg, 72 hours, read-out: IC50 of Compounds in Adherent Cell Types
Description: as §1

Pfeiffer = assay: IC50 cell-based assay, suspension cells, Pfeiffer; settings: Homo sapiens, Lymphoma, Diffuse large b-cell, read-out: IC50 of Compounds in Suspension Cell Types
Description: as §1
(§2) In one embodiment, the IC50s of the compounds provided herein were determined in cell-based assays using suspension cells. In one embodiment, the activity of the compounds provided herein were determined in a cell-based assay using the JeKo-1 cell line (mantle cell lymphoma) or the Pfeiffer cell line (diffuse large B-cell lymphoma). In one embodiment, the suspension cells used in the cell-based assays may be a cell type selected from Table 2. Assays with suspension cells were similar except that 40,000-60,000 cells were added to each well and compounds were added immediately after cell plating.

MCF-7 = assay: IC50 cell-based assay, adherent cells, MCF-7; settings: Homo sapiens, MCF7, Breast, ER+, 72 hours, read-out: IC50 of Compounds in Adherent Cell Types
Description: as §1

SK-MEL-28 = assay: IC50 cell-based assay, adherent cells, SK-MEL-28; settings: Homo sapiens, Melanoma, 72 hours, read-out: IC50 of Compounds in Adherent Cell Types
Description: as §1

Nalm-6 = assay: IC50 cell-based assay, suspension cells, Nalm-6; settings: Homo sapiens, Leukemia, B-ALL, read-out: IC50 of Compounds in Suspension Cell Types
Description: as §1, §2

A431 = assay: IC50 cell-based assay, adherent cells, A431; settings: Homo sapiens, A-431, Skin, epidermoid carcinoma, 72 hours, read-out: IC50 of Compounds in Adherent Cell Types
Description: as §1

SKBR-3 = assay: IC50 cell-based assay, adherent cells, SKBR-3; settings: Homo sapiens, SK-BR-3, Breast, ER−, 72 hours, read-out: IC50 of Compounds in Adherent Cell Types
Description: as §1

Z138, JeKo-1 = assay: IC50 cell-based assay, suspension cells, Z138, JeKo-1; settings: Lymphoma, Mantle cell, read-out: IC50 of Compounds in Suspension Cell Types
Description: as §1, §2

Hep-G2 = assay: IC50 cell-based assay, adherent cells, Hep-G2; settings: Homo sapiens, HepG2, Liver, hepatocellular carcinoma, 72 hours, read-out: IC50 of Compounds in Adherent Cell Types
Description: as §1

MHH-CALL-4 = assay: IC50 cell-based assay, suspension cells, MHH-CALL-4; settings: MHHCALL4, Leukemia, B-ALL (CRLF2 Hi), read-out: IC50 of Compounds in Suspension Cell Types
Description: as §1, §2

H-460 = assay: IC50 cell-based assay, adherent cells, H-460; settings: Homo sapiens, NCI-H460, Lung, large cell carcinoma, 72 hours, read-out: IC50 of Compounds in Adherent Cell Types
Description: as §1

FaDu = assay: IC50 cell-based assay, adherent cells, FaDu; settings: Homo sapiens, Pharynx, squamous cell, 72 hours, read-out: IC50 of Compounds in Adherent Cell Types
Description: as §1

SupB15 = assay: IC50 cell-based assay, suspension cells, SupB15; settings: Homo sapiens, SUP-B15, Leukemia, B-ALL (Philadelphia chromosome+), read-out: IC50 of Compounds in Suspension Cell Types
Description: as §1, §2

Nalm-6-VR = assay: IC50 cell-based assay, suspension cells, Nalm-6-VR; settings: Leukemia, B-ALL, Vincristine resistant, read-out: IC50 of Compounds in Suspension Cell Types
Description: as §1, §2

AsPC-1 = assay: IC50 cell-based assay, adherent cells, AsPC-1; settings: Homo sapiens, ASPC1, Pancreas, carcinoma, 72 hours, read-out: IC50 of Compounds in Adherent Cell Types
Description: as §1

MDA-MB-361 = assay: IC50 cell-based assay, adherent cells, MDA-MB-361; settings: Homo sapiens, Breast, Brain met Her2-neu + ER +, 72 hours, read-out: IC50 of Compounds in Adherent Cell Types
Description: as §1

HL-60 = assay: IC50 cell-based assay, suspension cells, HL-60; settings: Homo sapiens, Leukemia, AML, read-out: IC50 of Compounds in Suspension Cell Types
Description: as §1, §2

U87-MG = assay: IC50 cell-based assay, adherent cells, U87-MG; settings: Homo sapiens, U-87 MG, Brain, glioblastoma, 72 hours, read-out: IC50 of Compounds in Adherent Cell Types
Description: as §1

Panc-1 = assay: IC50 cell-based assay, adherent cells, Panc-1; settings: Homo sapiens, Pancreas, epitheloid carcinoma, 72 hours, read-out: IC50 of Compounds in Adherent Cell Types
Description: as §1

[1] = tested on: triple negative breast cancer cell line MDA-MB-468; assay: IC50 cell-based assay, adherent cells, MDA-MB-468; settings: Homo sapiens
Description: as §1
The IC50s of the compounds provided herein were determined in cell-based assay using triple negative breast cancer cell line MDA-MB-468.

A549 = assay: IC50 cell-based assay, adherent cells, A549; settings: Homo sapiens, Lung, NSCLC, 72 hours, read-out: IC50 of Compounds in Adherent Cell Types
Description: as §1

Caki-1 = assay: IC50 cell-based assay, adherent cells, Caki-1; settings: Homo sapiens, Kidney, clear cell carc., skin met, 72 hours, read-out: IC50 of Compounds in Adherent Cell Types
Description: as §1

HT-29 = assay: IC50 cell-based assay, adherent cells, HT-29; settings: Homo sapiens, Colorectal, adenocarcinoma, 72 hours, read-out: IC50 of Compounds in Adherent Cell Types
Description: as §1

1937 = assay: IC50 cell-based assay, adherent cells, 1937; settings: Breast, triple neg, 72 hours, read-out: IC50 of Compounds in Adherent Cell Types
Description: as §1

RT-4 = assay: IC50 cell-based assay, adherent cells, RT-4; settings: Homo sapiens, Bladder, papilloma, 72 hours, read-out: IC50 of Compounds in Adherent Cell Types
Description: as §1

Kg1a = assay: IC50 cell-based assay, suspension cells, Kg1a; settings: Homo sapiens, KG-1a, Leukemia, AML, read-out: IC50 of Compounds in Suspension Cell Types
Description: as §1, §2

[2] = MDA-MB-468, Breast, triple neg, 72 hours, Table 1, read-out: IC50 of Compounds in Adherent Cell Types
[3] = MDA-MB-468 cells, Table 3, read-out: IC50 of Compounds in MDA-MB-468 Cells

Compound | IC50 (OVCAR-3) [µM] | IC50 (MDA-MB-231) [µM] | IC50 (Pfeiffer) [µM] | IC50 (MCF-7) [µM] | IC50 (SK-MEL-28) [µM] | IC50 (Nalm-6) [µM] | IC50 (A431) [µM] | IC50 (SKBR-3) [µM] | IC50 (Z138, JeKo-1) [µM] | IC50 (Hep-G2) [µM] | IC50 (MHH-CALL-4) [µM] | IC50 (H-460) [µM] | IC50 (SupB15) [µM] | IC50 (MDA-MB-361) [µM] | IC50 (HL-60) [µM] | IC50 (Panc-1) [µM] | IC50 [1, 2] [µM] | IC50 [1, 3] [µM] | IC50 1937 [µM] | IC50 (Kg1a) [µM] | further results
O=C(Nc1cc(C(F)(F)F)cc(C(F)(F)F)c1)c1cc(-c2ccc(Br)cc2)oc1C(F)(F)F [Compound 3, 5-(4-Bromophenyl)-N-(3,5-bistrifluoromethylphenyl)-2-trifluoromethylfuran-3-carboxamide] | < 5 | 5 to 10 | < 5 | 5 to 10 | 5 to 10 | 5 to 10 | 5 to 10 | < 5 | < 5 | 5 to 10 | < 5 | 10 to 20 | < 5 | < 5 | < 5 | 5 to 10 | < 5 | 1.5 | < 5 | < 5 | IC50 (FaDu): < 5 µM; IC50 (Nalm-6-VR): < 5 µM; IC50 (AsPC-1): 5 to 10 µM; IC50 (U87-MG): 5 to 10 µM; IC50 (A549): < 5 µM; IC50 (Caki-1): 5 to 10 µM; IC50 (HT-29): 10 to 20 µM; IC50 (RT-4): > 20 µM
Cc1oc(-c2ccccc2)cc1C(=O)Nc1cc(C(F)(F)F)cc(C(F)(F)F)c1 [Compound 4, 2-Methyl-5-phenyl-furan-3-carboxylic acid (3,5-bis-trifluoromethyl-phenyl)-amide] |  | > 20 | > 20 | > 20 |  | > 20 |  | > 20 | > 20 |  | > 20 |  | > 20 | > 20 | > 20 | > 20 | 10 to 20 | > 30 | > 20 | > 20 | 
O=C(Nc1cc(F)cc(C(F)(F)F)c1)c1cc(-c2ccc(Cl)cc2)oc1C(F)(F)F [Compound 5, 5-(4-Chloro-phenyl)-2-trifluoromethyl-furan-3-carboxylic acid (3-fluoro-5-trifluoromethyl-phenyl)-amide] | 5 to 10 | 5 to 10 | 5 to 10 | < 5 | 5 to 10 | < 5 | > 20 | < 5 | < 5 | 10 to 20 | 5 to 10 | > 20 | < 5 | 10 to 20 | < 5 | < 5 | < 5 | 4 | 5 to 10 | 5 to 10 | IC50 (FaDu): 5 to 10 µM; IC50 (Nalm-6-VR): < 5 µM; IC50 (AsPC-1): 5 to 10 µM; IC50 (U87-MG): 10 to 20 µM; IC50 (A549): 5 to 10 µM; IC50 (Caki-1): 5 to 10 µM; IC50 (HT-29): > 20 µM; IC50 (RT-4): > 20 µM
O=C(Nc1cc(F)cc(C(F)(F)F)c1)c1cc(-c2ccccc2)oc1C(F)(F)F [Compound 6, 5-Phenyl-2-trifluoromethyl-furan-3-carboxylic acid (3-fluoro-5-trifluoromethyl-phenyl)-amide] | 5 to 10 | 5 to 10 | 10 to 20 | 5 to 10 | 5 to 10 | < 5 | 5 to 10 | < 5 | 5 to 10 | > 20 | 10 to 20 | > 20 | 5 to 10 | 10 to 20 | 5 to 10 | 5 to 10 | < 5 | 4 | 5 to 10 | 10 to 20 | IC50 (FaDu): 5 to 10 µM; IC50 (Nalm-6-VR): < 5 µM; IC50 (AsPC-1): 5 to 10 µM; IC50 (U87-MG): 10 to 20 µM; IC50 (A549): 5 to 10 µM; IC50 (Caki-1): 5 to 10 µM; IC50 (HT-29): > 20 µM; IC50 (RT-4): > 20 µM
O=C(Nc1cc(F)cc(C(F)(F)F)c1)c1cc(-c2ccc(Br)cc2)oc1C(F)(F)F [Compound 7, 5-(4-Bromo-phenyl)-2-trifluoromethyl-furan-3-carboxylic acid (3-fluoro-5-trifluoromethyl-phenyl)-amide] | 5 to 10 | 10 to 20 | 10 to 20 | 5 to 10 | 10 to 20 | 5 to 10 | 10 to 20 | 5 to 10 | 5 to 10 | 10 to 20 | 10 to 20 | > 20 | 5 to 10 | > 20 | 5 to 10 | > 20 | < 5 | 5 | 5 to 10 | 10 to 20 | IC50 (FaDu): 5 to 10 µM; IC50 (Nalm-6-VR): 10 to 20 µM; IC50 (AsPC-1): 10 to 20 µM; IC50 (U87-MG): > 20 µM; IC50 (A549): > 20 µM; IC50 (HT-29): > 20 µM; IC50 (RT-4): > 20 µM
COc1ccc(-c2cc(C(=O)Nc3cc(C(F)(F)F)cc(C(F)(F)F)c3)c(C(F)(F)F)o2)cc1 [Compound 8, 5-(4-Methoxy-phenyl)-2-trifluoromethyl-furan-3-carboxylic acid (3,5-bis-trifluoromethyl-phenyl)-amide] |  |  |  |  |  | < 5 |  |  |  |  |  |  |  |  |  |  | < 5 | 2 |  |  | 
